Assay results as given in patent US20150355179A1, “CDKACT BIOSENSORS-FLUORESCENT POLYPEPTIDE TO PROBE THE ACTIVITY OF CDK/CYCLIN KINASES IN VITRO, IN CELLULO AND IN VIVO” (CENTRE NATIONAL DE LA RECHERCHE SCIENTIFIQUE (CNRS), priority 2012, published 2015).

How the values were obtained:
[1] = system: CDK/Cyclin kinase activity in HeLa cell extracts; assay: Fluorescence kinase assay of CDKACTH1 in HeLa cell extracts; assay type: biochemical; settings: 20 ug HeLa cell extracts, increasing concentrations of inhibitor
Experimental: (§1) Fluorescence kinase assays were performed in 96-well plates in a thermostated chamber (Polarstar BMG) at 30° C. in 200 ul phosphate buffer saline, pH 7.2, 150 mM NaCl, in the presence of 5 mM MgCl2, 0.5 mM ATP, except when stated otherwise. The fluorescence of Cy3-labelled CDKACTH1 with recombinant CDK/Cyclin complexes or with cell extracts was monitored over time. Changes in Cy3 fluorescence emission were recorded at 590 nm following excitation at 544 nm. In all experiments, the fluorescence of CDKACTH1-Cy3 alone was substracted from all other values. Data analysis and curve fitting were performed using the GraFit Software (Erathicus Ltd).
Cell culture media, serum and antibiotics were purchased from Invitrogen. HeLa, HS68, A549, MCF-7 and U2OS cells were cultured in DMEM+Glutamax supplemented with 10% FCS, 1 mM penicillin and 1 mM streptomycin at 37° C. in an atmosphere containing 5% CO2. HT2-19 cells, provided by Dr. A. Porter, were cultured in DMEM+NEAA, antibiotics, sodium pyruvate and glutamine, and supplemented with 10% FCS29. Cell extracts were prepared in TBS lysis buffer containing 50 mM TrisHCl, pH 7.4, 150 mM NaCl, 0.1% NP40, 0.1% Deoxycholate, 2 mM EDTA, 1 mM PMSF, Complete™ protease inhibitors (Roche), and normalized following spectrophometric dosage at 280 nm. Phosphatase inhibitors: 50 mM NaF, 40 mM β-Glycero-phosphate, 1 mM Na3VO4.
Kinase assays were performed in the same conditions as above. […] As shown in FIG. 4A-C, incubation of 20 ug HeLa cell extracts with CDKACTH1 yielded a very similar profile to that obtained with recombinant CDK/Cyclins, implying that these kinases were indeed phosphorylating the substrate sequence of the biosensor. […] Since phosphorylation events are counterbalanced by phosphatases in mammalian cell extracts, we asked whether the response measured would be further improved if phosphatase activity was blocked.

A375 rvluc2 cells = assay: A375 xenograft tumour growth in NMRI nude mice; assay type: in vivo; settings: Roscovitine IP 50 mg/kg/day for 7 days
CDK4/Cyclin D = target: T1, CDK4/Cyclin D (Homo sapiens, UniProt P11802); assay: Real-time fluorescence kinase assay with recombinant CDK4/Cyclin D; assay type: biochemical; settings: 20 uM inhibitor; 75 nM CDK4/CyclinD, 25 nM CDKACTH1-Cy3
T1 construct: made in house; host or cells: E. coli
T1 sequence (P11802 whole entry, species assumed): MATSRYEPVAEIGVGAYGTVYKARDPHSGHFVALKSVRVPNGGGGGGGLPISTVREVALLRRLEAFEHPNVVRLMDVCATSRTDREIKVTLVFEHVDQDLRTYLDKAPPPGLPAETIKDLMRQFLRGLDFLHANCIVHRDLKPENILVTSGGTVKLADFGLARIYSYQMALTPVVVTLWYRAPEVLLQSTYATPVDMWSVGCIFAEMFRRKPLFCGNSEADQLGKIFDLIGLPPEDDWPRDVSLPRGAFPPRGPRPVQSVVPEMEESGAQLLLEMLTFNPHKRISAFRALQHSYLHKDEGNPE
T1 sequence (P24385 whole entry partner, species assumed): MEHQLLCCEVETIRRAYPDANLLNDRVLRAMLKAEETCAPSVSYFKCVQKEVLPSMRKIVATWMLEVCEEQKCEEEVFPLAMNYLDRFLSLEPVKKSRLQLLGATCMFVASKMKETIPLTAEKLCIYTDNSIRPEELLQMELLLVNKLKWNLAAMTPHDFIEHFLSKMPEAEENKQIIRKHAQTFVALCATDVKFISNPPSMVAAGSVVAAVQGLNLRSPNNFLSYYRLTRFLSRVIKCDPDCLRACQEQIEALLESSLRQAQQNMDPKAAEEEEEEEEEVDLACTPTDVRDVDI
Experimental: as §1
To address the issue of specificity, we asked whether other kinases could phosphorylate and thereby affect the fluorescence of CDKACTH1. We first examined CDK1/Cyclin B and CDK4/Cyclin D (FIGS. 3A and B).

CDK2/Cyclin A = target: T2, CDK2/Cyclin A (Homo sapiens, UniProt P24941); assay: Real-time fluorescence kinase assay with recombinant active CDK2/Cyclin A; assay type: biochemical
T2 construct: made in house; host or cells: E. coli
Experimental: (§2) In order to characterize CDKACT-H1 biosensor in vitro, we first asked whether it could be used to monitor recombinant kinase activity in a real-time assay.
as §1, §2
In vitro characterization was performed as described in Example 2. […] Assays were performed at 30° C. for 1600s. Fluorescence emission of Cy5 was measured at 675 nm following excitation at 645 nm on Polarstar™ fluorimeter.
Assays were performed at 30° C. for 1600s. Fluorescence emission of Cy3 was measured at 590 nm following excitation at 544 nm on Polarstar™ fluorimeter.

CC(=O)c1c(C)c2cnc(Nc3ccc(N4CCNCC4)cn3)nc2n(C2CCCC2)c1=O [PD-0332991]
share of CDKACTH1 phosphorylating activity attributed to the kinases blocked by the inhibitor [1]: partial activity

O=C1NC(=NCc2cccs2)S/C1=C\c1ccc2ncccc2c1 [RO3306]
share of CDKACTH1 phosphorylating activity attributed to the kinases blocked by the inhibitor [1]: larger part of activities

CC[C@H](CO)Nc1nc(NCc2ccccc2)c2ncn(C(C)C)c2n1 [roscovitine]
share of CDKACTH1 phosphorylating activity attributed to the kinases blocked by the inhibitor [1]: larger part of activities | size of tumours compared to vehicle (A375 rvluc2 cells; versus DMSO vehicle): 55.6% | size of tumours compared to control (A375 rvluc2 cells; versus non-treated control): 53.8% | effect of inhibitor on the CDKACTH1 fluorescence signal (CDK4/Cyclin D): no effect

CDKACTWWH1: peptide biosensor SEQ ID No 20: Pin1 WW phosphobinding domain, linker SEQ ID No 14, histone H1 substrate domain; synthesized, dye-labelled (KLPPGWEKRMSRSSGRVYYFNHITNASQWERPSGPGAGGTGGLPGGGGCSTPKKAKKL; Cy5 or Cy3 dye label; Polypeptide comprising: the WW domain of PIN1 wherein all Cystein residues are replaced by a Serine residue, a linker and the CDK substrate domain from histone H1)
fluorescence enhancement compared with CDKACTH1 (CDK2/Cyclin A; 25 nM Cy3-labelled sensors, 25 nM active CDK2/Cyclin A3): greater changes in fluorescence enhancement | fluorescence response to CDK2/CyclinA activity (CDK2/Cyclin A; 25 nM Cy5-CDKACT-WWH1, 25 nM active CDK2/Cyclin A3, 5 mM ATP, 20 mM MgCl2): significant changes in fluorescence enhancement
